Where two headings read alike, the source gives them in different places.

The term Ki denotes a measure of affinity in units of concentration, obtained from inhibition or displacement.

In one assay the target is Histamine H1 receptor (Cavia porcellus (Guinea pig), UniProt P31389). The assay is described as follows: Histamine H1 receptor binding assay (3H-pyrilamine). Conditions: guinea pig cerebellum membrane, 3H-pyrilamine. The protocol: Preparation of Histamine H1 Receptor Membrane
Guinea pigs were decapitated. […] Vortex mixer was used for blending. Centrifugation was conducted at 48000 g, 4° C. for 10 min. The supernatant was discarded to give pellets, and buffer was added again for washing. Centrifugation was conducted and repeated 3 times.
(§1) Materials for the Receptor Binding Assay
(2) 100 μL of membrane preparation was added into each reaction tube.

The target in the next assay is 5-HT2A (Rattus norvegicus (Rat), UniProt P14842). The assay is described as follows: 5-HT2A receptor binding assay ([3H]-Ketanserin).
A further assay has as its target 5-HT1A (Rattus norvegicus (Rat), UniProt P19327). The experiment in a line: 5-HT1A receptor binding assay (3H-8-OH-DPAT). Conditions: rat cortex membrane, 3H-8-OH-DPAT. How it is done: Rats were decapitated. […] Incubation at 37° C. was conducted for 10 min. […] Centrifugation was conducted and repeated 3 times.
as §1

The next assay addresses D2 (Rattus norvegicus (Rat), UniProt P61169). The assay is described as follows: D2 receptor binding assay (3H-Spiperone).
In the next assay the target is 5-HT7 receptor (Rattus norvegicus (Rat), UniProt P32305). The experiment in a line: 5-HT7 receptor binding assay ([3H]-5-CT). Conditions: rat hypothalamus membrane, [3H]-5-CT. The protocol:
Adult SD rats were decapitated. […] Centrifugation was conducted (repeated 3 times).
as §1

[1] abbreviates: read-out: Ki (nM) 5-HT2A, rat cortex membrane, [3H]-Ketanserin.
The mark [2] stands for this setting: read-out: Ki (nM) D2, rat striatum membrane, 3H-Spiperone.

Sequence of Histamine H1 receptor (P31389 whole entry): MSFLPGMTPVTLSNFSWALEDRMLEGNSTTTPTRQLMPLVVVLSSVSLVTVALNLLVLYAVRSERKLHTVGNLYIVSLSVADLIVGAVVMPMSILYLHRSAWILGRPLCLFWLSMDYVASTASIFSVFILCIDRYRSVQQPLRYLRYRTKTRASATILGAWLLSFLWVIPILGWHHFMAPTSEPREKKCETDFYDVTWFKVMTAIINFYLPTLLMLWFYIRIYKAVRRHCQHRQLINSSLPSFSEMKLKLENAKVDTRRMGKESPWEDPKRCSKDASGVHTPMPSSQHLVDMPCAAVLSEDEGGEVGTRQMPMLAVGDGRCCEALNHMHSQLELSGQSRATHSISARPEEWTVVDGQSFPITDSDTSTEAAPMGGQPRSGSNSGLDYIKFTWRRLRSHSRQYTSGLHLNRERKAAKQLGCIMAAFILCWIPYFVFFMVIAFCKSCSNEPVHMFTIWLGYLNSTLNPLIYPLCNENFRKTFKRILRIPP
Sequence of 5-HT1A (P19327 whole entry): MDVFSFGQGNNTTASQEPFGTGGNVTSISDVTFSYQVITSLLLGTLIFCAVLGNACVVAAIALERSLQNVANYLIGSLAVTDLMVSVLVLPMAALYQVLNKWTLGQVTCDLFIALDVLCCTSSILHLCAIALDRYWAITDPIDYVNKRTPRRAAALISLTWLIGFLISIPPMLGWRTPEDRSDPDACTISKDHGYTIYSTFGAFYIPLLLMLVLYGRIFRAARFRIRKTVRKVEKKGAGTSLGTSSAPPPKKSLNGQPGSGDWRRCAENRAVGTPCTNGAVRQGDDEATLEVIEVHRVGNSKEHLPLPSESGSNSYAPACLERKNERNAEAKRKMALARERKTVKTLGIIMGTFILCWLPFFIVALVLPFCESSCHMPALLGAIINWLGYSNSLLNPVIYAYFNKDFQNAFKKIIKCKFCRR
Sequence of 5-HT2A (P14842 whole entry): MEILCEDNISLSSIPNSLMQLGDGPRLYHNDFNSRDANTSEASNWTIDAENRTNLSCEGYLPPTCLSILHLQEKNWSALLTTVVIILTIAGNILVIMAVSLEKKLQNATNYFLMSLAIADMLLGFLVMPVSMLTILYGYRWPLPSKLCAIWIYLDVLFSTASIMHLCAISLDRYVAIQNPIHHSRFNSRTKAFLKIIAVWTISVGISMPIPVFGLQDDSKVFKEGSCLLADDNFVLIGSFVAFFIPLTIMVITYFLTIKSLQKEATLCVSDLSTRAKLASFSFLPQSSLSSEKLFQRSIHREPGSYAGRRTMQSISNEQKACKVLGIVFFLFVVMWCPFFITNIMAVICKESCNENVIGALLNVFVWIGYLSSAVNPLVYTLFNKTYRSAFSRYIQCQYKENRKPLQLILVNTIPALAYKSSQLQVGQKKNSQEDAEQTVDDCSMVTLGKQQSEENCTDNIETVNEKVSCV
Sequence of D2 (P61169 whole entry): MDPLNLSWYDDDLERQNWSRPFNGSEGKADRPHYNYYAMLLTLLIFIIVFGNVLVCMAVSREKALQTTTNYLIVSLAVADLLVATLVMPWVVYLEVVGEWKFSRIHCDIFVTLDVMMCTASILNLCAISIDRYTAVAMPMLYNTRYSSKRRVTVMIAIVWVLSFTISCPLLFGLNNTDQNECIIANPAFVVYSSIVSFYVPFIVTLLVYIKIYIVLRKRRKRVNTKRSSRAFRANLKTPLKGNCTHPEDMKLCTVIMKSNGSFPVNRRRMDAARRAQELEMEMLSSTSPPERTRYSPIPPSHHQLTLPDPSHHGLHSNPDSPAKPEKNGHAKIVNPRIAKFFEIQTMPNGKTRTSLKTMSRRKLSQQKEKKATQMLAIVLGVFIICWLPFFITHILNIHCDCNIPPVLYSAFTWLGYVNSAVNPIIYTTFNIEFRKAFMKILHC
Sequence of 5-HT7 receptor (P32305 whole entry): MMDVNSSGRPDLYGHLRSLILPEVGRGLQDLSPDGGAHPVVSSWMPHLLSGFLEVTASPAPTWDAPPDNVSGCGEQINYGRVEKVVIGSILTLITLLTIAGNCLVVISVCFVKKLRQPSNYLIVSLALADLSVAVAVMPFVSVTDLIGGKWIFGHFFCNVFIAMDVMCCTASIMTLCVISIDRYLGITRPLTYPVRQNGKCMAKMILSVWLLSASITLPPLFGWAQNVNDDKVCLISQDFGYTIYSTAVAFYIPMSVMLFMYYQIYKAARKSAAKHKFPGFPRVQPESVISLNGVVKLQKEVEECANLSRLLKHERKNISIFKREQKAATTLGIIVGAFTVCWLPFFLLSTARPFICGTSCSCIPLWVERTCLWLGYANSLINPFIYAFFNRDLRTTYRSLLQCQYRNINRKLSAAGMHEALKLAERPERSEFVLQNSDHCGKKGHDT
Procedure for 5-HT2A: Rats were decapitated. Cortex of brain was rapidly taken on ice, and 3 ml of buffer (0.05 M Tris-HCl buffer: 6.05 g of Tris was dissolved in 1000 ml of double-distilled water, and concentrated HCl was used to adjust to pH 7.5) was added, homogenization was conducted, and then 5 ml of buffer was added. Incubation was conducted at 37° C. for 10 min, the weight of the tubes were adjusted using a balance after incubation. Centrifugation was conducted at 12000 rpm, 4° C. for 20 min, the supernatant was discarded, and 3 ml of buffer was added. Vortex mixer was used for blending, and then 5 ml of buffer was added. Centrifugation was conducted (repeated 3 times). After the centrifugation, the supernatant was discarded, and the pellets were stored at −80° C. for future use.
(1) The prepared membrane was applied with buffer, and homogenizer was used for evenly dispersing. 15 tubes were mixed into a 100 ml container, and appropriate amount of buffer was added to give 50 ml of membrane suspension, which was reserved for future use.
(§2) (2) 100 μL of membrane preparation and 100 μL of buffer were added into each reaction tube.
(3) 100 μL of buffer was added into the total binding tube (TB), 100 μL of Methysergide (final concentration 10^−5M) was added into the nonspecific binding tube (NB), 100 μL of the test compound (final concentration 10^−5M) was added into the specific binding tube (SB) of each test compound.
(5) Each of the reaction tubes was incubated at 37° C. for 15 min. After the reaction was completed, the bound ligands were rapidly filtered under reduced pressure, and sufficiently washed with ice-chilled assay buffer. The filter was taken out and put into a 3 ml scintillation vial, and 2 ml of toluene scintillation cocktail was added and blended.
(6) The scintillation vial were put into Liquid Scintillation Counter for counting. Inhibition rate(I%)=(Total binding tube cpm−compound cpm)/(Total binding tube cpm−nonspecific binding tube cpm)×100%
Procedure for D2: Rats were decapitated. Striatum of brain was rapidly taken on ice, 3 ml of buffer (0.05 M Tris-HCl buffer, containing NaCl 120 mM, KCl 5 mM, MgCl2 1 mM, CaCl2 1 mM) was added, homogenization was conducted, and then 5 ml of buffer was then added. The weight of the homogenized tubes were adjusted using a balance, and centrifugation was conducted. The supernatant was discarded, and 3 ml of buffer was added. Vortex mixer was used for blending, and then 5 ml of buffer was added. Centrifugation was conducted and repeated 3 times. The supernatant was discarded after centrifugation was completed, and the pellets were stored at −80° C. for future use.
Beckman LS-6500 Multi-function Liquid Scintillation Counter was used.
(1) The prepared membrane was applied with appropriate amount of buffer, and homogenizer was used for evenly dispersing. 15 tubes were mixed into a 100 ml container, and appropriate amount of buffer was added to give 50 ml of membrane suspension, which was reserved for future use.
as §2
(3) 100 μL of buffer was added into the total binding tube (TB), 100 μL of Butaclamol (final concentration 10^−5M) was added into the nonspecific binding tube (NB), 100 μL of the test compound (final concentration 10^−5M) was added into the specific binding tube (SB) of each test compound.
(5) Each of the reaction tubes was incubated at 37° C. for 20 min. After the reaction was completed, the bound ligands were rapidly filtered under reduced pressure, and sufficiently washed with ice-chilled assay buffer. The filter was taken out and put into a 3 ml scintillation vial, and 2 ml of toluene scintillation cocktail was added and blended.
(6) The scintillation vials were put into Liquid Scintillation Counter for counting. Inhibition rate(I%)=(Total binding tube cpm−compound cpm)/(Total binding tube cpm−nonspecific binding tube cpm)×100%
Each assay for the compounds was conducted in duplicate for two individual tests.

Consider `CN1CCc2ccc(OCC(O)CN3CCC(c4noc5cc(F)ccc45)CC3)cc2C1=O` (stereo not shown) [Compound 4, 7-(3-(4-(6-fluorobenzo[d]isoxazol-3-yl)piperidin-1-yl)-2-hydroxypropoxy)-2-methyl-3,4-dihydroisoquinolin-1(2H)-one], for which the Ki at Histamine H1 receptor was greater than 2000 nM; on 5-HT2A (setting [1]) it was 15.9 nM; on 5-HT1A it was 3.9 nM; on D2 (setting [2]) it was 15.1 nM; on 5-HT7 receptor it was 10.2 nM.
For the molecule `CN1CCc2ccc(OCCCN3CCN(c4cccc5ccccc45)CC3)cc2C1=O` [Compound 6, 2-methyl-7-(3-(4-(naphthalen-1-yl)piperazin-1-yl)propoxy)-3,4-dihydroisoquinolin-1(2H)-one], the inhibitory constant (Ki) at 5-HT2A (setting [1]) was 57 nM; on 5-HT1A, 46.6 nM; at D2 (setting [2]), 134 nM.
With `CN1CCc2ccc(OCCCN3CCN(c4ccccc4F)CC3)cc2C1=O` [Compound 20, 7-(3-(4-(2-fluorophenyl)piperazin-1-yl)propoxy)-2-methyl-3,4-dihydroisoquinolin-1(2H)-one], the Ki at Histamine H1 receptor is greater than 2000 nM; at 5-HT2A (setting [1]), 32.1 nM; at 5-HT1A, 24.5 nM; at D2 (setting [2]), 54.8 nM; on 5-HT7 receptor, 29.9 nM.
The matching figures for `O=C1NCCc2ccc(OCCCN3CCC(c4noc5cc(F)ccc45)CC3)cc21` [Compound 12, 7-(3-(4-(6-fluorobenzo[d]isoxazol-3-yl)piperidin-1-yl)propoxy)-3,4-dihydroisoquinolin-1(2H)-one]: greater than 2000 nM, 5.5 nM, 19.3 nM, 10.4 nM and 8.9 nM.
In the case of `Cn1cnc2ccc(OCCCCN3CCc4ccccc4C3)cc2c1=O` [Compound 27, 6-(4-(3,4-dihydroisoquinolin-2(1H)-yl)butoxy)-3-methylquinazolin-4(3H)-one], the figures for the inhibition constant (Ki) on 5-HT2A (setting [1]), on 5-HT1A and on D2 (setting [2]) were 66.2 nM, 57.9 nM and 500 nM, respectively.
On to `CN1CCc2ccc(OCCCN3CCN(c4ccc5ccccc5n4)CC3)cc2C1=O` [Compound 15, 7-(3-(4-(quinolin-2-yl)piperazin-1-yl)propoxy)-2-methyl-3,4-dihydroisoquinolin-1(2H)-one], for which the inhibition constant Ki on 5-HT2A (setting [1]) was determined as 468 nM; at 5-HT1A it was 157 nM; on D2 (setting [2]), 1990 nM.
On to `CN1CCc2ccc(OCCCCN3CCN(c4cccc(C(F)(F)F)c4)CC3)cc2C1=O` [Compound 3, 2-methyl-7-(4-(4-(3-(trifluoromethyl)phenyl)piperazin-1-yl)butoxy)-3,4-dihydroisoquinolin-1 (2H)-one], for which the inhibitory constant (Ki) came out at 9.9 nM at 5-HT2A (setting [1]), 11.8 nM on 5-HT1A, 17.2 nM on D2 (setting [2]) and 23.6 nM on 5-HT7 receptor.
As to `CN1CCc2ccc(OCCCN3CCN(c4ccccc4Cl)CC3)cc2C1=O` [Compound 18, 7-(3-(4-(2-chlorophenyl)piperazin-1-yl)propoxy)-2-methyl-3,4-dihydroisoquinolin-1(2H)-one], the Ki at 5-HT2A (setting [1]), on 5-HT1A and at D2 (setting [2]) was greater than 2000 nM in each case.
`CN1CCc2ccc(OCCCN3CCN(c4ccc(F)cc4)CC3)cc2C1=O` [Compound 19, 7-(3-(4-(4-fluorophenyl)piperazin-1-yl)propoxy)-2-methyl-3,4-dihydroisoquinolin-1(2H)-one]: the inhibitory constant (Ki) at 5-HT2A (setting [1]) turned out to be 688 nM; at 5-HT1A it was 746 nM; on D2 (setting [2]), 1650 nM.
For `CN1CCc2ccc(OCCCN3CCN(c4ccc(Cl)cc4)CC3)cc2C1=O` [Compound 17, 7-(3-(4-(4-chlorophenyl)piperazin-1-yl)propoxy)-2-methyl-3,4-dihydroisoquinolin-1(2H)-one], the Ki on 5-HT2A (setting [1]), at 5-HT1A and on D2 (setting [2]) was greater than 2000 nM throughout.
With `CN1CCc2ccc(OCCCN3CCN(c4ccccc4)CC3)cc2C1=O` [Compound 16, 2-methyl-7-(3-(4-phenylpiperazin-1-yl)propoxy)-3,4-dihydroisoquinolin-1(2H)-one], the Ki on 5-HT2A (setting [1]) was 372 nM; on 5-HT1A it was 569 nM; on D2 (setting [2]), greater than 2000 nM.
For the molecule `COc1ccc(N2CCN(CCCOc3ccc4c(c3)C(=O)N(C)CC4)CC2)cc1` [Compound 21, 7-(3-(4-(4-methoxyphenyl)piperazin-1-yl)propoxy)-2-methyl-3,4-dihydroisoquinolin-1(2H)-one], the Ki at 5-HT2A (setting [1]), at 5-HT1A and on D2 (setting [2]) was greater than 2000 nM in each case.
For the molecule `Cn1c(=O)c2cc(OCCCN3CCN(c4cccc5sccc45)CC3)ccc2n(C)c1=O` [D, reference compound], the Ki on Histamine H1 receptor turned out to be 154 nM; at D2 (setting [2]), 25.5 nM; at 5-HT7 receptor, 606 nM.
As to `Cn1cnc2ccc(OCCCCN3CCN(c4ccccn4)CC3)cc2c1=O` [Compound 30, 3-methyl-6-(4-(4-(pyridin-2-yl)piperazin-1-yl)butoxy)quinazolin-4(3H)-one], the Ki on 5-HT2A, at 5-HT1A and at D2 was greater than 2000 nM each time.
On to `CN1CCc2ccc(OCCCN3CCN(c4ccccn4)CC3)cc2C1=O` [Compound 23, 2-methyl-7-(3-(4-(pyridin-2-yl)piperazin-1-yl)propoxy)-3,4-dihydroisoquinolin-1(2H)-one], for which the Ki on 5-HT2A (setting [1]) was 369 nM; at 5-HT1A it was greater than 2000 nM; on D2 (setting [2]), greater than 2000 nM.
With `O=C1NCCc2ccc(OCCCN3CCN(c4ccc5sccc5c4)CC3)cc21` [C, reference compound], the Ki at Histamine H1 receptor turned out to be 138 nM; at D2, 35.2 nM; at 5-HT7 receptor, 500 nM.
Consider `CN1CCc2ccc(OCCCCN3CCC(c4noc5cc(F)ccc45)CC3)cc2C1=O` [Compound 1, 7-(4-(4-(6-fluorobenzo[d]isoxazol-3-yl)piperidin-1-yl)butoxy)-2-methyl-3,4-dihydroisoquinolin-1(2H)-one], for which the Ki on 5-HT2A (setting [1]) is 18.9 nM; at 5-HT1A, 15.8 nM; on D2 (setting [2]), 12.5 nM; on 5-HT7 receptor it was 12.5 nM.
On to `COc1ccccc1N1CCN(CCCCOc2ccc3c(c2)C(=O)N(C)CC3)CC1` [Compound 2, 7-(4-(4-(2-methoxyphenyl)piperazin-1-yl)butoxy)-2-methyl-3,4-dihydroisoquinolin-1(2H)-one], for which the Ki worked out at 36.8 nM at 5-HT2A (setting [1]), 11.3 nM at 5-HT1A and 120 nM on D2 (setting [2]).
`Cn1cnc2ccc(OCCCCN3CCN(Cc4ccccc4)CC3)cc2c1=O` [Compound 26, 6-(4-(4-benzylpiperazin-1-yl)butoxy)-3-methylquinazolin-4(3H)-one]: the Ki at 5-HT2A (setting [1]) was greater than 2000 nM; at 5-HT1A it was 56.9 nM; at D2 (setting [2]), greater than 2000 nM.
For the molecule `Cn1cnc2ccc(OCCCCN3CCN(c4ccc(F)cc4)CC3)cc2c1=O` [Compound 29, 6-(4-(4-(4-fluorophenyl)piperazin-1-yl)butoxy)-3-methylquinazolin-4(3H)-one], the Ki was 347 nM on 5-HT2A (setting [1]), 259 nM on 5-HT1A and greater than 2000 nM on D2 (setting [2]).
For the molecule `CN1CCc2ccc(OCCCN3CCN(c4cccc5sccc45)CC3)cc2C1=O` [B, reference compound], the Ki at Histamine H1 receptor was 139 nM; at 5-HT7 receptor, 579 nM.
Take `CN1CCc2ccc(OCCCN3CCN(c4ccc5c(c4)OCO5)CC3)cc2C1=O` [Compound 13, 7-(3-(4-(benzo[d][1,3]dioxol-5-yl)piperazin-1-yl)propoxy)-2-methyl-3,4-dihydroisoquinolin-1 (2H)-one]: the figures for the inhibition constant Ki at 5-HT2A (setting [1]), at 5-HT1A and on D2 (setting [2]) were 3.6 nM, 12.8 nM and 235 nM, respectively.

(Values after US10501452B2, “Lactam compound derivative and application thereof” (NHWA PHARMA. CORPORATION, priority 2015, dated 2019).)
